System: mouse erythropoietin
Assay: Plasma erythropoietin levels in mice after IV dosing (mouse erythropoietin QUANTIKINE ELISA)
Type: in vivo, Male Swiss Webster mice
Settings: blood 4 hours post IV dosing, same conditions and concentration
Procedure: Compounds were tested for activity using the following assay. Compounds were dissolved in aqueous solution containing twice as much sodium hydroxide, mole-for-mole, as compound and dextrose as tonicity agent. Male Swiss Webster mice were dosed by tail vein injection with the compound, and blood samples were collected into EDTA and heparin 4 hours post IV dosing. The samples were analyzed using a mouse erythropoietin QUANTIKINE ELISA kit (R&D Systems Inc., Minneapolis Minn.) according to the manufacturer's instructions. […] Table 1 below illustrates the fold difference (i.e., the level of improvement) between erythropoietin levels achieved by compounds of the invention compared to erythropoietin levels achieved by compounds having the same structure except the cyano group at the C-1 position is replaced as shown below, tested under the same conditions and at the same concentration.

[1] = comparator: same structure with —H in place of cyano at C-1, tail vein injection
[2] = comparator: same structure with —CH3 in place of cyano at C-1, tail vein injection
[3] = comparator: same structure with —Cl in place of cyano at C-1, tail vein injection

| SMILES | Fold Difference (erythropoietin levels vs. comparative compound) [1] [×] | Fold Difference (erythropoietin levels vs. comparative compound) [2] [×] | Fold Difference (erythropoietin levels vs. comparative compound) [3] [×] | other results |
| --- | --- | --- | --- | --- |
| COc1cccc(Oc2cccc3c(O)c(C(=O)NCC(=O)O)nc(C#N)c23)c1 [Example 20, {[1-Cyano-4-hydroxy-8-(3-methoxy-phenoxy)-isoquinoline-3-carbonyl]-amino}-acetic acid] | 23 | – | – | – |
| Cc1nc2ccc(Oc3ccc4c(C#N)nc(C(=O)NCC(=O)O)c(O)c4c3)cc2s1 [Example 39, {[1-Cyano-4-hydroxy-6-(2-methyl-benzothiazol-6-yloxy)-isoquinoline-3-carbonyl]-amino}-acetic acid] | – | 178 | – | – |
| N#Cc1nc(C(=O)NCC(=O)O)c(O)c2cc(Oc3ccccc3)ccc12 [Example 12, [(1-Cyano-4-hydroxy-6-phenoxy-isoquinoline-3-carbonyl)-amino]-acetic acid] | – | – | 449 | Fold Difference (erythropoietin levels vs. comparative compound) (comparator: same structure with —Br in place of cyano at C-1, tail vein injection): 362× |
| CN(C)c1nc2cc(Oc3ccc4c(C#N)nc(C(=O)NCC(=O)O)c(O)c4c3)ccc2o1 [Example 40, {[1-Cyano-6-(2-dimethylamino-benzooxazol-5-yloxy)-4-hydroxy-isoquinoline-3-carbonyl]-amino}-acetic acid] | 81 | – | – | – |
| N#Cc1nc(C(=O)NCC(=O)O)c(O)c2ccc(Oc3ccc(F)cc3)cc12 [Example 6, {[1-Cyano-7-(4-fluoro-phenoxy)-4-hydroxy-isoquinoline-3-carbonyl]-amino}-acetic acid] | – | – | 31 | – |
| N#Cc1nc(C(=O)NCC(=O)O)c(O)c2ccc(Cc3ccccc3)cc12 [Example 22, [(7-Benzyl-1-cyano-4-hydroxy-isoquinoline-3-carbonyl)-amino]-acetic acid] | 26 | – | – | – |
| N#Cc1nc(C(=O)NCC(=O)O)c(O)c2c(Oc3ccc(F)cc3)cccc12 [Example 23, {[1-Cyano-5-(4-fluoro-phenoxy)-4-hydroxy-isoquinoline-3-carbonyl]-amino}-acetic acid] | 277 | – | – | – |
| N#Cc1nc(C(=O)NCC(=O)O)c(O)c2ccc(Oc3ccccc3)cc12 [Example 3, [(1-Cyano-4-hydroxy-7-phenoxy-isoquinoline-3-carbonyl)-amino]-acetic acid] | – | 2.5 | – | – |
| N#Cc1nc(C(=O)NCC(=O)O)c(O)c2cccc(Oc3ccccc3)c12 [Example 9, [(1-Cyano-4-hydroxy-8-phenoxy-isoquinoline-3-carbonyl)-amino]-acetic acid] | – | 2.4 | – | – |
| N#Cc1nc(C(=O)NCC(=O)O)c(O)c2ccccc12 [Example 1, [(1-Cyano-4-hydroxy-isoquinoline-3-carbonyl)-amino]-acetic acid] | – | – | 4.7 | – |

From patent publication US8759373B2, “Cyanoisoquinoline compounds and methods of use thereof” (Fibrogen, Inc., priority 2006, dated 2014)
